Results taken from US8846704B2, “Thiopyrimidine-based compounds and uses thereof” (YM Biosciences Austraila Pty Ltd, priority 2007, dated 2014).

What was measured:
Assay type in all cases: biochemical
[1] = target: T1, Human hemopoietic cell protein-tyrosine kinase (HCK) (Homo sapiens, UniProt P08631); experiment: Alphascreen tyrosine kinase enzyme assay, HCK kinase domain; conditions: read-out: FMS, FLT3, or HCK IC50_nM (HCK)
T1 construct: GST (N); made in house; host or cells: Sf9 insect cells (baculovirus)
Procedure: (§1) For screening purposes, compounds (in 100% DMSO) were warmed at 37 degrees for at least 20 minutes before use. A […] stock was initially made in assay buffer, where the final concentration of DMSO was 0.3%. The stocks were then diluted in 384 well Optiplates (Packard) where the final concentration of the compound was […].
The kinase domain of Human hemopoietic cell protein-tyrosine kinase (HCK) between L212 and P505 (accession number M16592) was amplified from U937 mRNA using the polymerase chain reaction.
The PCR product was cloned into the pDest20 destination vector (Gibco). The plasmid was then transformed into competent […] cells (Gibco) to produce a HCK bacmid. The recombinant baculovirus was prepared via Sf9 insect cell transfection with bacmid DNA.
Baculovirus preparations from each of the constructs were infected into either one or five liters of Sf9 cells (Invitrogen) grown in SF-900 medium (Invitrogen) to a cell density of approximately 1-2×10^6 cells/ml. Cells were infected with virus at a MOI of 0.8-3.0. Cells were harvested and lysed. Tyrosine kinase domains were purified by affinity chromatography on a glutathione-agarose column (Scientifix Pty. Ltd. catalog #: GSH-200). […]

[2] = target: T2, human CSF1-R (FMS) (Homo sapiens, UniProt P07333); experiment: Alphascreen tyrosine kinase enzyme assay, CSF-1R (FMS) kinase domain; conditions: read-out: FMS, FLT3, or HCK IC50_nM (FMS)
T2 construct: from codon I553 to Q961; GST (N); made in house; host or cells: Sf9 insect cells (baculovirus)
T2 sequence (P07333 553-961): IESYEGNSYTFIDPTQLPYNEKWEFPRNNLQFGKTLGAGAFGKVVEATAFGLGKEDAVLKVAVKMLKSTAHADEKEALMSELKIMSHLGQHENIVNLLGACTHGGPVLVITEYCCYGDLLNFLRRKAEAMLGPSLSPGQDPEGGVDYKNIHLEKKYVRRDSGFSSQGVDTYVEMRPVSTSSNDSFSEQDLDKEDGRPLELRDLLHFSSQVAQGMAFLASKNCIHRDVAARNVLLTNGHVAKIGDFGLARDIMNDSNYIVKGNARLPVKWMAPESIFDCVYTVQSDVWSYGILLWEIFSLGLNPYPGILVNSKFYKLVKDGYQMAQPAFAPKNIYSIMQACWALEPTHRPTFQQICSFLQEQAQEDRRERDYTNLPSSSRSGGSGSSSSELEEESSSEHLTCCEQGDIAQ
Procedure: as §1
The kinase domain of human CSF1-R from codon I553 to Q961 was cloned into the pDest20 expression vector (Invitrogen). The CSF1-R plasmid was then transformed into competent DH10Bac cells (Gibco), and the recombinant baculovirus produced prepared for transfection into Sf9 insect cells.
(§2) Baculovirus preparations from each of the constructs were infected into either one or five liters of Sf9 cells (Invitrogen) grown in SF-900 medium (Invitrogen) to a cell density of approximately 1-2×10^6 cells/ml. Cells were infected with virus at a MOI of 0.8-3.0. Cells were harvested and lysed. Tyrosine kinase domains were purified by affinity chromatography on a glutathione-agarose column (Scientifix Pty. Ltd. catalog #: GSH-200).
(§3) Kinase assays were performed in 384 well Optiplates (Packard) using an Alphascreen Protein Tyrosine Kinase PY100 detection kit The compounds were pre-incubated with affinity purified PTK domain in the presence of phosphotyrosine assay buffer (10 mM HEPES, pH 7.5, 100 mM MgCl2, 25 mM NaCl, […] and 0.1% Tween 20) for 20 minutes. The compounds were then incubated with substrate in the presence of ATP. The substrate used was susbtrate-1 with the sequence biotin-EGPWLEEEEEAYGWMDF-NH2 [SEQ. ID. NO. 13] (final concentration […]). For HCK 80 μm ATP was used and incubated for 60 minutes. Alphascreen phosphotyrosine acceptor beads followed by streptavidin donor beads at a concentration of 1/100 in stop buffer were added to each well under subdued light and incubated for 2-3 hours., The Alphascreen plates were read on a Packard Fusion Alpha instrument.

[3] = target: T3, Flt 4(h) (Homo sapiens, UniProt P35916); experiment: Upstate KinaseProfiler enzyme assay, Flt 4; conditions: 500 nM compound; read-out: Percent inhibition at 500 nM Flt 4(h)
T3 construct: purchased Upstate Biotechnology (Dundee, UK), KinaseProfiler service
Procedure: (§4) Further enzyme assays were conducted at Upstate Biotechnology (Dundee, UK) in the KinaseProfiler™ Assay system.
(§5) The general protocol is as follows. All kinases are pre-diluted to a 10× working concentration prior to addition into the assay. The composition of the dilution buffer for the kinases is 20 mM MOPS pH 7.0, 1 mM EDTA, 0.1% β-mercaptoethanol, 0.01% Brij-35, 5% glycerol, 1 mg/ml BSA. All substrates are dissolved and diluted to working stocks in de-ionised water.

[4] = target: T4, human JAK2 (Homo sapiens, UniProt O60674); experiment: Alphascreen tyrosine kinase enzyme assay, JAK2 kinase domain; conditions: read-out: JAK2 IC50_nM
T4 construct: The kinase domain of human JAK2 was amplified; GST (N); made in house; host or cells: Sf9 insect cells (baculovirus)
Procedure: as §1
The kinase domain of human JAK2 was amplified from U937mRNA using the polymerase chain reaction with the following primers: […]
The JAK2 PCR products were cloned into the pDest20 destination vector (Gibco). The JAK2 plasmid was then transformed into competent DH10Bac cells (Gibco), and the recombinant baculovirus was prepared via Sf9 insect cell transfection.
as §2, §3

[5] = target: T5, Bmx(h) (Homo sapiens, UniProt P51813); experiment: Upstate KinaseProfiler enzyme assay, Bmx; conditions: 500 nM compound; read-out: Percent inhibition at 500 nM Bmx(h)
T5 construct: purchased Upstate Biotechnology (Dundee, UK), KinaseProfiler service
T5 sequence (P51813 1-675): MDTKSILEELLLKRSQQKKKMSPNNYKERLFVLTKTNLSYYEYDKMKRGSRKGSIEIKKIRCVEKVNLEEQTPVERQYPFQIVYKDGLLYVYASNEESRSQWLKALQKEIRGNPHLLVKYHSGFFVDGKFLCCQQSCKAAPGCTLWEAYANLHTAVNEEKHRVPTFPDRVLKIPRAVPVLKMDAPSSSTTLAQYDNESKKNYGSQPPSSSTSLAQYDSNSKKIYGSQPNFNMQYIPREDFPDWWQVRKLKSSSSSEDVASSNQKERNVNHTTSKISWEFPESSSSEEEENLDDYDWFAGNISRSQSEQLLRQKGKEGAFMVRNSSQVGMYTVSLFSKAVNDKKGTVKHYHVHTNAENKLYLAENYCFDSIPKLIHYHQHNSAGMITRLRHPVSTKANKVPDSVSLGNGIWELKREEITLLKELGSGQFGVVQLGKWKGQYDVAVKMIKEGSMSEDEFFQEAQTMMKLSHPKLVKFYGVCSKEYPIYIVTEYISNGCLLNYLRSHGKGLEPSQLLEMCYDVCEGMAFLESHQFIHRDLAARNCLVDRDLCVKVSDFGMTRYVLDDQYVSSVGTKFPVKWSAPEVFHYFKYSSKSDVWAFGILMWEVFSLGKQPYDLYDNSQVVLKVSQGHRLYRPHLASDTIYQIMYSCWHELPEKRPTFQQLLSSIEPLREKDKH
Procedure: as §4, §5

[6] = target: T6, human JAK3 (Homo sapiens, UniProt P52333); experiment: Alphascreen tyrosine kinase enzyme assay, JAK3 kinase domain; conditions: read-out: JAK3 IC50_nM
T6 construct: The kinase domain of human JAK3 was amplified; GST (N); made in house; host or cells: Sf9 insect cells (baculovirus)
Procedure: as §1
The kinase domain of human JAK3 was amplified from U937mRNA using the polymerase chain reaction with the following primers: […]
The JAK3 PCR products were cloned into the pDest20 destination expression vector (Gibco). The JAK3 plasmid was then transformed into competent DH10Bac cells (Gibco), and the recombinant baculovirus was prepared via Sf9 insect cell transfection.
as §2, §3

[7] = target: T7, Flt 1(h) (Homo sapiens, UniProt P17948); experiment: Upstate KinaseProfiler enzyme assay, Flt 1; conditions: 500 nM compound; read-out: Percent inhibition at 500 nM Flt 1(h)
T7 construct: purchased Upstate Biotechnology (Dundee, UK), KinaseProfiler service
Procedure: as §4, §5

[8] = target: T8, KDR(h) (Homo sapiens, UniProt P35968); experiment: Upstate KinaseProfiler enzyme assay, KDR; conditions: 500 nM compound; read-out: Percent inhibition at 500 nM KDR(h)
T8 construct: purchased Upstate Biotechnology (Dundee, UK), KinaseProfiler service
Procedure: as §4, §5

[9] = target: T9, Blk(m) (Mus musculus, UniProt P16277); experiment: Upstate KinaseProfiler enzyme assay, Blk; conditions: 500 nM compound; read-out: Percent inhibition at 500 nM Blk(m)
T9 construct: purchased Upstate Biotechnology (Dundee, UK), KinaseProfiler service
Procedure: as §4, §5

[10] = target: T10, BTK(h) (Homo sapiens, UniProt Q06187); experiment: Upstate KinaseProfiler enzyme assay, BTK; conditions: 500 nM compound; read-out: Percent inhibition at 500 nM BTK(h)
T10 construct: purchased Upstate Biotechnology (Dundee, UK), KinaseProfiler service
Procedure: as §4, §5

T9 sequence (P16277 whole entry): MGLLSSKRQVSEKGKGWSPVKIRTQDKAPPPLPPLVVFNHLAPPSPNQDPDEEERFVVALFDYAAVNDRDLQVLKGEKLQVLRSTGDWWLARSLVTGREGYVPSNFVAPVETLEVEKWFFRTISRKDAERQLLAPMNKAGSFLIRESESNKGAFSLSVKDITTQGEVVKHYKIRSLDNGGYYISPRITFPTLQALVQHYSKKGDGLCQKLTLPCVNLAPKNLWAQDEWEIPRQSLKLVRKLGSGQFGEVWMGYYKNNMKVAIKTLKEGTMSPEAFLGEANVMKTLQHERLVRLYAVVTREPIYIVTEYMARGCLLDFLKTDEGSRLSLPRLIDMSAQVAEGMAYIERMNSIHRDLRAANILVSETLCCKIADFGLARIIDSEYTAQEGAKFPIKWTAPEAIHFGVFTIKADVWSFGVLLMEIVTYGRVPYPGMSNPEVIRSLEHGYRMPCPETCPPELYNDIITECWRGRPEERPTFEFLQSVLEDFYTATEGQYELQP
T8 sequence (P35968 20-1356): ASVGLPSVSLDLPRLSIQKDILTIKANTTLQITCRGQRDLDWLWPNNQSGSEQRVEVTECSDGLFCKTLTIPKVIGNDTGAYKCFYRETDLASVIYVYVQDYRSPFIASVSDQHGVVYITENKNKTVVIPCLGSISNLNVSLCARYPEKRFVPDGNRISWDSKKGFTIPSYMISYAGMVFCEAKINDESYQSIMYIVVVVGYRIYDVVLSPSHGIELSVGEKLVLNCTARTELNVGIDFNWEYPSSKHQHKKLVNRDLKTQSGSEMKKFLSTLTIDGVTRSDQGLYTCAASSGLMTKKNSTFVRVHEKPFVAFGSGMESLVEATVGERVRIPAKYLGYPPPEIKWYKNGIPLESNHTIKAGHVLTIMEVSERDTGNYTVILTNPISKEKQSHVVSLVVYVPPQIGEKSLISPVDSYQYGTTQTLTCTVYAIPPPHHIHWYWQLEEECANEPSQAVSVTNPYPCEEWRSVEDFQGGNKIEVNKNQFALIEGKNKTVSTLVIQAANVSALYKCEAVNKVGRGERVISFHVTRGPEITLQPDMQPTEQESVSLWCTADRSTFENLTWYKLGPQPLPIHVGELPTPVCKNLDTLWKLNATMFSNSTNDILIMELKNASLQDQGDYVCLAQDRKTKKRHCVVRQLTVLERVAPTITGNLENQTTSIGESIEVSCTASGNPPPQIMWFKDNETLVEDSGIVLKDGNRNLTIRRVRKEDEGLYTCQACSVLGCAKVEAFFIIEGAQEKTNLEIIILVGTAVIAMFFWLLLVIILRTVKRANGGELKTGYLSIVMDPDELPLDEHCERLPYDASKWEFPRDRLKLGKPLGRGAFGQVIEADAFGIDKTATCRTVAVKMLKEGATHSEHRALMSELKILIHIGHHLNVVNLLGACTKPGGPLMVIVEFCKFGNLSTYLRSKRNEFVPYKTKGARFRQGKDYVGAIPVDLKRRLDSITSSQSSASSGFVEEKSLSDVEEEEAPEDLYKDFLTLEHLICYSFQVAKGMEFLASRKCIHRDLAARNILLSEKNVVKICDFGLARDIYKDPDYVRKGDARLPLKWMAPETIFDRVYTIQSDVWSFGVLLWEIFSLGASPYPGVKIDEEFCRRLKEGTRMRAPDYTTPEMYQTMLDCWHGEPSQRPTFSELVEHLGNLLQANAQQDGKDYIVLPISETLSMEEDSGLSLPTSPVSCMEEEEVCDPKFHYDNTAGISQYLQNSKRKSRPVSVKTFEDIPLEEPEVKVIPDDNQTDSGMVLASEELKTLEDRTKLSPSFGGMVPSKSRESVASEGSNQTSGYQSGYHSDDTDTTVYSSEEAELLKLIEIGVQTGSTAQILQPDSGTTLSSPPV
T7 sequence (P17948 27-1338): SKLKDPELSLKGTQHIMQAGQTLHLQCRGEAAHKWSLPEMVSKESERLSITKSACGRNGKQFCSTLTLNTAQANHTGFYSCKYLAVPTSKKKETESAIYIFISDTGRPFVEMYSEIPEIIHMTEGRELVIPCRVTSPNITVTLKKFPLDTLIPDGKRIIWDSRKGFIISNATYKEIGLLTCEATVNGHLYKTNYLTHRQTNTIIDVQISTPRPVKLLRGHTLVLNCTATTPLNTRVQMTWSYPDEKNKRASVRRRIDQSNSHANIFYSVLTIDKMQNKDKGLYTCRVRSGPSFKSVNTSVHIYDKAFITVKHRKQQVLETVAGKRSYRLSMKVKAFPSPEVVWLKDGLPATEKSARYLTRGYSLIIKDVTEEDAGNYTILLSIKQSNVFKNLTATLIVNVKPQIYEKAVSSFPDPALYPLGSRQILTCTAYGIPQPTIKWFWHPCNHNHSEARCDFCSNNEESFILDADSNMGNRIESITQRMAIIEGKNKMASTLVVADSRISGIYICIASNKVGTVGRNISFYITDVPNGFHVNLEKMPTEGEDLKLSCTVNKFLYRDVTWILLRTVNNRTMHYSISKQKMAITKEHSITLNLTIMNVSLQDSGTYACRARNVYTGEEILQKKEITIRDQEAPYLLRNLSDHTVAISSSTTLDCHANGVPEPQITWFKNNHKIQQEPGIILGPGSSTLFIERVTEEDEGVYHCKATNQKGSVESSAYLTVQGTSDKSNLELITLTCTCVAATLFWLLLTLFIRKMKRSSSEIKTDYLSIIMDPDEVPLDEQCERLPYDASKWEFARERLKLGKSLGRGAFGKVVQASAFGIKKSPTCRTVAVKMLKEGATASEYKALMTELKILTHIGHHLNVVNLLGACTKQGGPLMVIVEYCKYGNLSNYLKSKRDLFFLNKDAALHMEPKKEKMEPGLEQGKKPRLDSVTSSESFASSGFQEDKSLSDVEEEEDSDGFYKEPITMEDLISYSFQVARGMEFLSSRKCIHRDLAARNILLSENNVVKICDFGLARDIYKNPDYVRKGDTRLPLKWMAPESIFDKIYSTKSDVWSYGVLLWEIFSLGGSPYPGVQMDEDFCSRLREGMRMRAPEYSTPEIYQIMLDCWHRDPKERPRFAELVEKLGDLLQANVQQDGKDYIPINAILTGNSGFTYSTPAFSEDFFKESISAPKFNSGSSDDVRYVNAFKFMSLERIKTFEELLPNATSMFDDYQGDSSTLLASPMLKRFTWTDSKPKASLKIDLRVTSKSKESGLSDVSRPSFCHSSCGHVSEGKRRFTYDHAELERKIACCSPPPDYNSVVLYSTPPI
T10 sequence (Q06187 whole entry): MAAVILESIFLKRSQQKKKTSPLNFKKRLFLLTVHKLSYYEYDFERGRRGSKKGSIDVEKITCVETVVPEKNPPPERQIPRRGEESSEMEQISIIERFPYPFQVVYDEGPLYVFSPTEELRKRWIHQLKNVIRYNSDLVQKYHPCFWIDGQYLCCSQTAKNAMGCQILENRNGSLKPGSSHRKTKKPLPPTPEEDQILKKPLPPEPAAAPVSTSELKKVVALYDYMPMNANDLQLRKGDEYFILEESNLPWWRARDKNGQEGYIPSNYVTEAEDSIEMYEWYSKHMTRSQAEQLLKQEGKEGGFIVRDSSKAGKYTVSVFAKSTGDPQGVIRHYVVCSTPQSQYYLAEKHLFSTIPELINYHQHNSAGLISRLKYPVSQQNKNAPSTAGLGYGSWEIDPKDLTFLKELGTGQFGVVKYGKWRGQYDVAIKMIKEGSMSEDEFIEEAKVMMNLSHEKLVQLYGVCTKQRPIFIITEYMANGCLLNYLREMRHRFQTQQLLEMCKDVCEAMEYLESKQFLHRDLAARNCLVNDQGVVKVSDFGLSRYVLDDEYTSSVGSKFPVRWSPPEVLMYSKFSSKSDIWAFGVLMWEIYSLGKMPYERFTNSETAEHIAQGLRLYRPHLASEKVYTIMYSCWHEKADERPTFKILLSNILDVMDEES
T6 sequence (P52333 822-1111 limits assumed): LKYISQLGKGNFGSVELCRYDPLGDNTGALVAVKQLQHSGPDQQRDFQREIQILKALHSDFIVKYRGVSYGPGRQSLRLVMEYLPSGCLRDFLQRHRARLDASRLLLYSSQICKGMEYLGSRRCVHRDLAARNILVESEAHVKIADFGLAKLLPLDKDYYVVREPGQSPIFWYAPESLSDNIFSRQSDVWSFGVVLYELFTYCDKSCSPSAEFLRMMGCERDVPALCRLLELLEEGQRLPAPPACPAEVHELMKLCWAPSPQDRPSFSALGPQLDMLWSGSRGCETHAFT
T4 sequence (O60674 849-1124 limits assumed): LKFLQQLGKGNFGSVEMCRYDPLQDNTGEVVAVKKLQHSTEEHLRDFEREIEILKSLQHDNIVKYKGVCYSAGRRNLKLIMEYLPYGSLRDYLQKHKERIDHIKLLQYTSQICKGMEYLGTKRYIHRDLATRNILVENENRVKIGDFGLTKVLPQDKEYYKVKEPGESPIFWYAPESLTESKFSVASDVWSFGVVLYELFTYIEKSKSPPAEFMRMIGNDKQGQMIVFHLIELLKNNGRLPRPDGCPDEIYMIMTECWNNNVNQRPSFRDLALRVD
T1 sequence (P08631 233-526): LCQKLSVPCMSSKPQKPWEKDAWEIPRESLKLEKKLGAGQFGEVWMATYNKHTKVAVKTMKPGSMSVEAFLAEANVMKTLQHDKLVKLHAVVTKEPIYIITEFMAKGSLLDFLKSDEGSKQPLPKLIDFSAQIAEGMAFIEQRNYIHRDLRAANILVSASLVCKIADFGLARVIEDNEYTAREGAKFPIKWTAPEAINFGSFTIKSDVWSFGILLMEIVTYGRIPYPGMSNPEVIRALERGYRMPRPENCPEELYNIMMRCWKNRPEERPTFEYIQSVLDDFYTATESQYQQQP

Row | IC50 [1] [nM] | IC50 [2] [nM] | inhibition at 0.5 µM [3] [%] | IC50 [4] [nM] | inhibition at 0.5 µM [5] [%] | IC50 [6] [nM] | inhibition at 0.5 µM [7] [%] | inhibition at 0.5 µM [8] [%] | inhibition at 0.5 µM [9] [%] | inhibition at 0.5 µM [10] [%] | SMILES
1 | < 500 | < 500 | – | – | – | – | – | – | – | – | Oc1cccc(Sc2ccnc(Nc3ccc(N4CCOCC4)cc3)n2)c1 [Compound 38, 3-(2-(4-morpholinophenylao)pyrimidin-4-ylthio)phenol]
2 | – | – | 99 | > 1000 | 92 | < 100 | 66 | 96 | 98 | – | C=CC(=O)N1CCCc2cc(Sc3nc(Nc4ccc(N5CCOCC5)cc4)ncc3C)ccc21 [Compound 168, 1-(6-(5-methyl-2-(4-morpholinophenylao)pyrimidin-4-ylthio)-3,4-dihydroquinolin-1(2H)-yl)prop-2-en-1-one]
3 | – | – | 99 | > 1000 | 97 | < 100 | 74 | 97 | 96 | – | C=CC(=O)N1CCc2cc(Sc3nc(Nc4ccc(N5CCOCC5)cc4)ncc3C)ccc21 [Compound 170, 1-(5-(5-methyl-2-(4-morpholinophenylao)pyrimidin-4-ylthio)indolin-1-yl)prop-2-en-1-one]
4 | – | – | – | – | 100 | – | – | 100 | 100 | 100 | C/C=C/C(=O)Nc1ccc(Sc2ccnc(Nc3ccc(N4CCOCC4)cc3)n2)cc1 [Compound 59, (E)-N-(4-(2-(4-morpholinophenylao)pyrimidin-4-ylthio)phenyl)but-2-enamide]
5 | – | – | – | – | 100 | – | – | 100 | 29 | 100 | C=CC(=O)Nc1cccc(Sc2ccnc(Nc3cc(OC)c(OC)c(OC)c3)n2)c1 [Compound 51, N-(3-(2-(3,4,5-trimethoxyphenylamino)pyrimidin-4-ylthio)phenyl)acrylamide]
